“And” between values parts separate entries of the source, which are not always exact repeats. Identical values can stand only once.
Experiments:
[1] = system: rats; test: Maximal electroshock seizure test (MES) in rats; type: in vivo; conditions: for ED50: Rattus norvegicus; for Fraction of rats which responded to the treatment: MES
Description: Briefly, Maximal Electroshock Seizure (MES) assay measures drug capacity to prevent seizure spread and is thus considered to model generalized tonic-clonic seizures. […] The current was delivered to the subjects by means of corneal electrodes to produce tonic hind limb extension. Animals not displaying tonic hind limb extension were considered affected positively by the tested compound.

[2] = system: rats; test: Subcutaneous metrazol seizure threshold test (scMet) in rats; type: in vivo; conditions: for ED50: Rattus norvegicus, po; for ED50 / ED50 scMet in Rats: rats, scMet model, oral administration (stated for Compound 1); for Fraction of rats which responded to the treatment: scMet
Experimental: Subcutaneous Metrazole Seizure Threshold Test (scMet) assay measures the ability of an agent to elevate seizure threshold and is considered to model generalized absence seizures. The assay was performed by subcutaneous injection of 85 mg/kg of the convulsant agent metrazole that induces clonic seizures in at least 97% of all animal models (rats and mice).

[3] = system: mice; test: Psychomotor seizure (6 Hz, 32 mA) assay in mice; type: in vivo; conditions: Mus musculus, ip, intraperitoneal
Experimental: In a third model, the compounds were tested for their ability to block 6 Hz (32 mA) seizures following intraperitoneal administration thereof to male mice. This test is aimed at identifying new drug candidates for the treatment of therapy-resistant partial seizures.
(§1) Briefly, psychomotor seizure (6-Hz) assay measures the resistance of a subject to induced psychomotor seizures. The assay was conducted in mice which were pretreated with the test compound. At varying times after treatment, individual subjects were challenged with sufficient current of 32 mA at 6 Hz for 3 seconds, or 44 mA at 6 Hz for 3 seconds, delivered through corneal electrodes to elicit a psychomotor seizure. Animals which were not affected by the current were considered affected positively by the tested compound, thus compounds which were found active in this test are considered promising novel drug candidates for the treatment of therapy-resistant seizures.

[4] = system: mice; test: Psychomotor seizure (6 Hz, 44 mA) assay in mice; type: in vivo; conditions: Mus musculus
Experimental: as §1

[5] = system: rats; test: Hippocampal kindling screen in rats; type: in vivo; conditions: for ED50: Rattus norvegicus, ip
Experimental: In a fifth model, the hippocampal kindling assay was used to identify new drug candidates effective for the treatment of difficult-to-control seizure types and complex partial seizures, as well as compounds that may be effective as mood stabilizer for treating bipolar disorder, and was conducted according to the protocol described therein.
Briefly, this test was conducted by using a bipolar stimulating electrode which was implanted in the hippocampus of rats, and the rats were kindled according to a described method. One week after implantation of the electrodes, the rats were stimulated with supra-threshold trains of 200 μA and 50 Hz for 10 seconds every 30 minutes for 6 hours on alternate days until the animals were fully kindled. […] The behavioral seizures were scored according to the following criteria (“seizure score”): stage 1—mouth and facial clonus; stage 2—stage 1 plus head nodding; stage 3—stage 2 plus forelimb clonus; stage 4—stage 3 plus rearing; and stage 5—stage 4 plus repeated rearing and falling.
For these studies, each of the compounds was evaluated for its ability to block the kindled motor seizure (seizure scores 4 and 5) and limbic behavioral seizures (seizure score between 1 and 3). Additionally the new drug candidate was evaluated for their ability to reduce after discharge duration. The term “after-discharge-duration” is the duration (measured in seconds) of the stages defined above, which are elicited by the electrical currents delivered to the rats.
At least one week after the fully kindled state was reached, a dose of the test compound was administered intraperitoneally and its effect on behavioral seizure score and after-discharge-duration following 200 μA stimulation was assessed at various time intervals before drug administration and after drug administration. Animals not displaying stage 4 or 5 were considered affected positively from seizure generalization.

[6] = in vivo; conditions: rat, po
Experimental: (§2) The neurotoxicity of the compounds of the present embodiments was tested using rats which were treated by oral administration, and evaluated according to the “gait and stance” test, which assesses minimal neurotoxicity. […] The median neurological toxic dose (TD50) was used for quantization of neurotoxicity.

[7] = system: rats; test: Neurotoxicity, gait and stance test in rats (TD50); conditions: oral administration, median neurological toxic dose
Experimental: as §2

[8] = system: Sprague Dawley rats; test: Acute toxicity (acute motor impairment) after i.p. administration to rats; type: in vivo
Experimental: Acute toxicity was determined by recording acute motor impairment after three doses of 30, 100 and 300 mg/kg of the tested compounds. The compounds were administered by the intraperitoneal (i.p.) route to three groups of 4 Sprague Dawley rats. […]

[9] = system: mice; conditions: reported by Spielman et al. [19]; cited from earlier work
[10] = system: mice; conditions: reported by Spielman et al. [19]; cited from earlier work; remark: listed apart in the source
[11] = system: mice; conditions: tested by Spielman and co-workers; cited from earlier work
[12] = system: mice; test: Bicuculline (BIC) clonic seizure assay in mice; type: in vivo; conditions: Mus musculus, sc, BIC 2.7 mg/kg s.c., read-out: Bicucullin ED50
[13] = system: mice; test: animal or person; type: in vivo; conditions: Mus musculus, sc, read-out: Picrotoxin ED50
[14] = system: rats; conditions: results disclosed in the art; cited from earlier work
[15] = system: rats; conditions: results disclosed in the art; cited from earlier work; remark: listed apart in the source
[16] = system: rats; conditions: oral administration, literature values; cited from earlier work
[17] = system: mice; conditions: from [31]; cited from earlier work
[18] = system: mice; conditions: from [31]; cited from earlier work; remark: listed apart in the source

SMILES: CCCC(C(=O)NC(N)=O)C(C)C (racemic) [Compound 1, 1-(2-isopropylpentanoyl)urea]
- ED50 ([1]; rats, MES model): 16 mg/kg
- ED50 [2]: 45 mg/kg
- ED50 scMet in Rats [2]: 45.4 mg/kg
- ED50 [3]: 42.2 mg/kg
- ED50 [4]: 71 mg/kg
- ED50 ([5]; rats, intraperitoneal): > 94 mg/kg
- TD50 [6]: 95 mg/kg
- TD50 in Rats [7]: 94.5 mg/kg

SMILES: CC[C@@H](C)[C@@H](CC)C(=O)NC(N)=O (racemic) [Compound 4, 1-(2-ethyl-3-methyl-pentanoyl)-urea]
- ED50 ([1]; rats, MES model): 24 mg/kg
- ED50 [2]: 14 mg/kg
- ED50 [3]: 21 mg/kg
- ED50 [4]: 48 mg/kg
- toxicity profile (animals toxic/tested) ([8]; 100 mg/kg i.p., 0.25 hours): 0/2
- toxicity profile (animals toxic/tested) ([8]; 100 mg/kg i.p., 0.5 hours): 1/2
- toxicity profile (animals toxic/tested) ([8]; 100 mg/kg i.p., 1 hour): 1/2
- toxicity profile (animals toxic/tested) ([8]; 100 mg/kg i.p., 2 hours): 0/2
- toxicity profile (animals toxic/tested) ([8]; 100 mg/kg i.p., 4 hours): 0/2
- toxicity profile (animals toxic/tested) ([8]; 300 mg/kg i.p., 0.25 hours): 2/2
- toxicity profile (animals toxic/tested) ([8]; 300 mg/kg i.p., 0.5 hours): 2/2
- toxicity profile (animals toxic/tested) ([8]; 300 mg/kg i.p., 1 hour): 2/2
- toxicity profile (animals toxic/tested) ([8]; 300 mg/kg i.p., 2 hours): 2/2
- toxicity profile (animals toxic/tested) ([8]; 300 mg/kg i.p., 4 hours): 2/2
- activity in the MES assay [9]: inactive
- activity in the scMet assay [10]: only active at toxic doses
- anti-convulsant activity [11]: lack beneficial activity
- TD50 [6]: 97 mg/kg

SMILES: CCC[C@H](C(=O)NC(N)=O)C(C)C (stereo in doubt) [Compound 1R, R-1-(2-isopropylpentanoyl)urea]
- ED50 [3]: 43 mg/kg
- ED50 [4]: 56 mg/kg

SMILES: CCC[C@@H](C(=O)NC(N)=O)C(C)C [Compound 1S, S-1-(2-isopropylpentanoyl)urea]
- ED50 [3]: 46 mg/kg
- ED50 [4]: 75 mg/kg

SMILES: CC(C)C(C(=O)NC(N)=O)C(C)C [Compound 2, 1-(2-isopropyl-3-methylbutanoyl)urea]
- Fraction of rats which responded to the treatment ([1]; dose 15 mg/kg): 1/8
- Fraction of rats which responded to the treatment ([1]; dose 30 mg/kg): 5/8
- Fraction of rats which responded to the treatment ([1]; dose 60 mg/kg): 5/8
- Fraction of rats which responded to the treatment ([1]; dose 120 mg/kg): 8/8
- ED50 ([1]; rats, MES model): 33 mg/kg
- ED50 MES in Rats ([1]; rats, MES model): 32.7 mg/kg
- ED50 [2]: 16 mg/kg
- ED50 scMet in Rats [2]: 15.7 mg/kg
- Fraction of rats which responded to the treatment ([2]; dose 6 mg/kg): 1/8
- Fraction of rats which responded to the treatment ([2]; dose 12 mg/kg): 2/8
- Fraction of rats which responded to the treatment ([2]; dose 25 mg/kg): 6/8
- Fraction of rats which responded to the treatment ([2]; dose 50 mg/kg): 8/8
- ED50 [3]: 43.3 mg/kg
- ED50 [4]: 48.6 mg/kg
- ED50 ([5]; rats, intraperitoneal): > 200 mg/kg
- melting point: 199 to 200 °C

SMILES: CC(C)(C)CC(=O)NC(N)=O [Compound 3, 1-(3,3-dimethyl-butyryl)urea]
- ED50 ([1]; rats, MES model): 63.9 mg/kg
- ED50 [2]: 26 mg/kg
- ED50 [3]: 80 mg/kg
- ED50 ([5]; rats, intraperitoneal): 35 mg/kg
- After Discharge Duration After administration ([5]; individual kindled rats, 15 minutes after intraperitoneal administration, before: 93-103 (rat 1), 28-75 (rat 2)): significantly decreased and 4 sec and 14 sec
- Seizure Score After administration ([5]; individual kindled rats, 15 minutes after intraperitoneal administration, score before administration 5): 0
- ED50 Hippocampal kindling in Rats ([5]; rats, intraperitoneal): 35.1 mg/kg
- ED50 [12]: 205 mg/kg
- ED50 [13]: 167 mg/kg
- melting point: 174 to 175 °C
- TD50 [6]: 143 mg/kg

SMILES: CCCCC(CC)C(=O)NC(N)=O (centres unmarked) [Compound 5, 1-(2-ethyl-hexanoyl)-urea]
- melting point: 158 to 159 °C
- anti-convulsant activity [11]: lack beneficial activity

SMILES: CCCC(CCC)C(=O)NC(N)=O [Compound 6, 1-(2-propyl-pentanoyl)-urea]
- ED50 ([1]; rats, MES model): 53.8 mg/kg
- ED50 [2]: 76.8 mg/kg
- ED50 [3]: 57.8 mg/kg
- ED50 [4]: 105 mg/kg
- ED50 ([5]; rats, intraperitoneal): > 180 mg/kg
- anti-convulsant activity [11]: lack beneficial activity

SMILES: CC(C)CC(=O)NC(N)=O [Compound 7, 3-methylbutanoylurea]
- ED50 ([1]; rats, MES model): > 250 mg/kg
- ED50 [2]: 83 mg/kg
- anti-convulsant activity [11]: lack beneficial activity
- TD50 [6]: < 500 mg/kg

SMILES: CCC(C)C(=O)NC(N)=O (centres unmarked) [Compound 8, 2-methylbutanoylurea]
- melting point: 178 to 180 °C
- anti-convulsant activity [11]: lack beneficial activity

SMILES: CC(C)(C)C(=O)NC(N)=O [Compound 9, 2,2-dimethylpropanoylurea]
- ED50 ([1]; rats, MES model): 69.4 mg/kg
- ED50 [2]: 29.8 mg/kg
- melting point: 148 to 149 °C
- TD50 [6]: 228 mg/kg

SMILES: CC1(C)C(C(=O)NC(N)=O)C1(C)C [Reference Compound 1, N-(2,2,3,3-tetramethylcyclopropanecarbonyl)urea]
- ED50 rat-MES model [14]: 29 mg/kg
- ED50 rat-scMet model [15]: 92 mg/kg

SMILES: CC1(C)C(C(=O)NCC(N)=O)C1(C)C [Reference Compound 2, N-(2,2,3,3-tetramethylcyclopropylcarbonyl)glycinamide]
- ED50 rat-MES model [14]: 73 mg/kg
- ED50 rat-scMet model [15]: higher than 250 mg/kg
- TD50 [16]: above 500 mg/kg

SMILES: CCCC(CCC)C(=O)O [Valproic acid, valproic acid]
- ED50 rat-scMet model [15]: 646 mg/kg
- Bicucullin ED50 [17]: 589 mg/kg
- Picrotoxin ED50 [18]: 270 mg/kg
